The IC50 is the concentration at which inhibition is half-maximal.

The test system of one experiment is MV-4-11 cells. Kind of experiment: Cell Viability Assay in MV-4-11 Cells. Type of experiment: cell-based. As to conditions: Homo sapiens, MV4-11, 72 h. Here is the method:
MV-4-11 cells (ATCC) were seeded into sterile 96-well flat clear bottom white polystyrene TC-treated microplates (Corning) at 7,000 cells/well in 150 μL complete growth medium (Iscove's Modified Dulbecco's Medium (IMDM) (Gibco), 10% Heat Inactivated Fetal Bovine Serum (HyClone), 1% Penicillin-Streptomycin-L-Glutamine (HyClone), 1% GlutaMAX (Gibco)). […] After 72 h incubation, plates were removed from incubators and allowed to equilibrate to room temperature (˜10 min) before adding 50 μL per well Cell-Titer Glo reagent (Promega) using a WellJet (Integra Biosciences) dispenser. Plates were then incubated at room temperature for 2-20 min prior to measurement of luminescence on an Envision (Perkin Elmer) plate reader. Data were normalized to DMSO (100% viability) and analyzed using a non-linear four-parameter curve fit.
Regarding `Cc1cccc2ccnc(N(C(=O)c3ccc(C#N)cc3-c3cccnc3)[C@@H]3CCCNC3)c12` [Example 334, 4-cyano-N-(8-methyl-1-isoquinolyl)-N-[(3R)-3-piperidyl]-2-(3-pyridyl)benzamide], the half-maximal inhibitory concentration (IC50) was over 10000 nM.
On the same count and under the same terms, to `Cc1cccc2ccnc(N(C(=O)N3CCC[C@H](CCC(=O)Nc4ccccc4)C3)[C@@H]3CCCNC3)c12` [Example 344, N-(8-methylisoquinolin-1-yl)-3-(3-oxo-3-(phenylamino)propyl)-N—((R)-piperidin-3-yl) piperidine-1-carboxamide] belongs 930 nM; to `C=CCc1ccnc(N(C(=O)c2ccc(Cl)c(CC=C)c2)[C@@H]2CCCNC2)c1` [Example 362, 3-allyl-N-(4-allyl-2-pyridyl)-4-chloro-N-[(3R)-3-piperidyl]benzamide], 4300 nM.

The experiment is the same for the next values; noted with them: Homo sapiens, MV4-11, 72 h, MV-4-11 cells, 72 h, Cell-Titer Glo; read-out: IC50.
Regarding `Cc1cccc2ccnc(N(C(=O)c3ccc(C#N)c(-c4ccc(-c5ccncc5)cc4)c3)[C@@H]3CCCNC3)c12` [Example 330, 4-cyano-N-(8-methyl-1-isoquinolyl)-N-[(3R)-3-piperidyl]-3-[4-(4-pyridyl)phenyl]benzamide], the IC50 was 90 nM.
As to `O=C(c1ccc(-n2nnc3cccnc32)cc1F)N(c1nccc2cc(/C=C/CO)ccc12)[C@@H]1CCCNC1` [Example 331, (R)-4-(3H-[1,2,3]triazolo[4,5-b]pyridin-3-yl)-2-fluoro-N-(6-(3-hydroxyprop-1-en-1-yl)isoquinolin-1-yl)-N-(piperidin-3-yl)benzamide], the IC50 came to 81 nM.
For the molecule `Cc1cccc2ccnc(N(C(=O)c3ccc(-c4ccc[nH]c4=O)cc3)[C@@H]3CCCNC3)c12` [Example 332, (R)—N-(8-methylisoquinolin-1-yl)-4-(2-oxo-1,2-dihydropyridin-3-yl)-N-(piperidin-3-yl)benzamide], the IC50 amounted to 2700 nM.
Same read-out and setting: as for `Cc1cccc2ccnc(N(C(=O)c3ccc(C#N)cc3-c3ccn[nH]3)[C@@H]3CCCNC3)c12` [Example 333, 4-cyano-N-(8-methyl-1-isoquinolyl)-N-[(3R)-3-piperidyl]-2-(1H-pyrazol-5-yl)benzamide], the figure is over 10000 nM; as for `Cc1cccc2ccnc(N(C(=O)c3ccc(C#N)cc3-c3ccccn3)[C@@H]3CCCNC3)c12` [Example 335, 4-cyano-N-(8-methyl-1-isoquinolyl)-N-[(3R)-3-piperidyl]-2-(2-pyridyl)benzamide], 2600 nM; as for `Cc1cccc2ccnc(N(C(=O)c3ccc(C#N)c(-c4cccc(-c5cccnc5)c4)c3)[C@@H]3CCCNC3)c12` [Example 336, 4-cyano-N-(8-methyl-1-isoquinolyl)-N-[(3R)-3-piperidyl]-3-[3-(3-pyridyl)phenyl]benzamide], 270 nM.
Take `O=C(c1ccc(-n2nnc3cccnc32)cc1F)N(c1nccc2ccc(/C=C\CO)cc12)[C@@H]1CCCNC1` [Example 337, (R,Z)-4-(3H-[1,2,3]triazolo[4,5-b]pyridin-3-yl)-2-fluoro-N-(7-(3-hydroxyprop-1-en-1-yl)isoquinolin-1-yl)-N-(piperidin-3-yl)benzamide]: the concentration for half-maximal inhibition (IC50) was 250 nM.
Regarding `Cc1cccc2ccnc(N(C(=O)N3CCC[C@@H](c4ccc(-n5cc6cccc(C(N)=O)c6n5)cc4)C3)[C@@H]3CCCNC3)c12` [Example 339, 2-(4-((S)-1-((8-methylisoquinolin-1-yl)((R)-piperidin-3-yl)carbamoyl)piperidin-3-yl)phenyl)-2H-indazole-7-carboxamide], the half-inhibitory concentration (IC50) turned out to be 550 nM.
On to `Cc1cccc2ccnc(N(C(=O)N3CCC[C@@H](n4nc(-c5ccc(Oc6ccccc6)cc5)c5c(N)ncnc54)C3)[C@@H]3CCCNC3)c12` [Example 340, (R)-3-(4-amino-3-(4-phenoxyphenyl)-1H-pyrazolo[3,4-d]pyrimidin-1-yl)-N-(8-methylisoquinolin-1-yl)-N—((R)-piperidin-3-yl)piperidine-1-carboxamide], for which the IC50 was determined as 860 nM.
Regarding `Cc1cccc2ccnc(N(C(=O)N3CCCC(c4ncc(-c5ccccc5)[nH]4)C3)[C@@H]3CCCNC3)c12` (stereo partly drawn) [Example 341, N-(8-methylisoquinolin-1-yl)-3-(5-phenyl-1H-imidazol-2-yl)-N—((R)-piperidin-3-yl)piperidine-1-carboxamide], the half-maximal inhibitory concentration (IC50) amounted to 370 nM.
On the same count and under the same terms, as for `Cc1cccc2ccnc(N(C(=O)N3CCCC4(CCN(C(=O)OCc5ccccc5)CC4)C3)[C@@H]3CCCNC3)c12` [Example 342, benzyl (R)-2-((8-methylisoquinolin-1-yl)(piperidin-3-yl)carbamoyl)-2,9-diazaspiro [5.5]undecane-9-carboxylate], the figure is 2000 nM; as for `Cc1cccc2ccnc(N(C(=O)N3CCc4[nH]nc(-c5ccccc5)c4C3)[C@@H]3CCCNC3)c12` [Example 343, (R)—N-(8-methylisoquinolin-1-yl)-3-phenyl-N-(piperidin-3-yl)-1,4,6,7-tetrahydro-5H-pyrazolo[4,3-c]pyridine-5-carboxamide], 1400 nM; as for `Cc1cccc2ccnc(N(C(=O)N3CCCC(N4C(=O)c5ccccc5C4=O)C3)[C@@H]3CCCNC3)c12` (stereo partly drawn) [Example 345, 3-(1,3-dioxoisoindolin-2-yl)-N-(8-methylisoquinolin-1-yl)-N—((R)-piperidin-3-yl)piperidine-1-carboxamide], 300 nM.
As for `Cn1cc(-c2ccc(C(=O)N(c3cc(/C=C\CCO)ccn3)[C@@H]3CCCNC3)cc2)nn1` [Example 346, N-[4-[(Z)-4-hydroxybut-1-enyl]-2-pyridyl]-4-(1-methyltriazol-4-yl)-N-[(3R)-3-piperidyl] benzamide], the IC50 was over 10000 nM.
For `Cc1cccc2ccnc(N(C(=O)N3CCC(c4cn(C)nn4)CC3)[C@@H]3CCCNC3)c12` [Example 347, N-(8-methyl-1-isoquinolyl)-4-(1-methyltriazol-4-yl)-N-[(3R)-3-piperidyl]piperidine-1-carboxamide], the concentration for half-maximal inhibition (IC50) stood at 300 nM.
Consider `Cn1cc(-c2ccc(C(=O)N(c3nccc4cccc(/C=C/c5cn[nH]c5)c34)[C@@H]3CCCNC3)cc2)nn1` [Example 348, (R,E)-N-(8-(2-(1H-pyrazol-4-yl)vinyl)isoquinolin-1-yl)-4-(1-methyl-1H-1,2,3-triazol-4-yl)-N-(piperidin-3-yl)benzamide], for which the IC50 came to 460 nM.
`Cn1cc(-c2ccc(C(=O)N(c3nccc4cccc(/C=C/c5cccnc5)c34)[C@@H]3CCCNC3)cc2)nn1` [Example 349, 4-(1-methyltriazol-4-yl)-N-[(3R)-3-piperidyl]-N-[8-[(E)-2-(3-pyridyl)vinyl]-1-isoquinolyl]benzamide]: the half-inhibitory concentration (IC50) turned out to be 310 nM.
The same measure, in the same setting: to `Cc1cccc2ccnc(N(C(=O)c3ccc(-c4cncnc4N)cc3F)[C@@H]3CCCNC3)c12` [Example 353, (R)-4-(4-aminopyrimidin-5-yl)-2-fluoro-N-(8-methylisoquinolin-1-yl)-N-(piperidin-3-yl)benzamide] belongs 540 nM; to `Cc1ncnc(C)c1-c1ccc(C(=O)N(c2nccc3cccc(C)c23)[C@@H]2CCCNC2)c(F)c1` [Example 354, 4-(4,6-dimethylpyrimidin-5-yl)-2-fluoro-N-(8-methyl-1-isoquinolyl)-N-[(3R)-3-piperidyl]benzamide], 970 nM.
Take `Cc1nccc(N)c1-c1ccc(C(=O)N(c2nccc3cccc(C)c23)[C@@H]2CCCNC2)c(F)c1` [Example 361, (R)-4-(4-amino-2-methylpyridin-3-yl)-2-fluoro-N-(8-methylisoquinolin-1-yl)-N-(piperidin-3-yl)benzamide]: the 50% inhibitory concentration (IC50) was over 10000 nM.
As to `Cn1cc(-c2ccc(C(=O)N(c3nccc4sc(-c5ccncc5)cc34)[C@@H]3CCCNC3)c(F)c2)nn1` [Example 363, 2-fluoro-4-(1-methyltriazol-4-yl)-N-[(3R)-3-piperidyl]-N-[2-(4-pyridyl)thieno[3,2-c]pyridin-4-yl]benzamide], the half-maximal inhibitory concentration (IC50) stood at 350 nM.
Still for that read-out and setting: to `O=C(c1ccc(-n2nnc3cccnc32)cc1F)N(c1nccc2sc(-c3cccnc3)cc12)[C@@H]1CCCNC1` [Example 364, 2-fluoro-N-[(3R)-3-piperidyl]-N-[2-(3-pyridyl)thieno[3,2-c]pyridin-4-yl]-4-(triazolo[4,5-b]pyridin-3-yl)benzamide] belongs 360 nM; to `O=C(c1ccc(-n2nnc3cccnc32)cc1F)N(c1nccc2sc(-c3ccccn3)cc12)[C@@H]1CCCNC1` [Example 365, 2-fluoro-N-[(3R)-3-piperidyl]-N-[2-(2-pyridyl)thieno[3,2-c]pyridin-4-yl]-4-(triazolo[4,5-b]pyridin-3-yl)benzamide], 480 nM.
For the molecule `O=C(c1ccc(-n2nnc3cccnc32)cc1F)N(c1nccc2cc(-c3ncco3)ccc12)[C@@H]1CCCNC1` [Example 366, (R)-4-(3H-[1,2,3]triazolo[4,5-b]pyridin-3-yl)-2-fluoro-N-(6-(oxazol-2-yl)isoquinolin-1-yl)-N-(piperidin-3-yl)benzamide], the 50% inhibitory concentration (IC50) stood at 290 nM.
Same read-out and setting: to `O=C(c1ccc(-n2nnc3cccnc32)cc1F)N(c1nccc2cc(-c3cccnc3)ccc12)[C@@H]1CCCNC1` [Example 367, (R)-4-(3H-[1,2,3]triazolo[4,5-b]pyridin-3-yl)-2-fluoro-N-(piperidin-3-yl)-N-(6-(pyridin-3-yl)isoquinolin-1-yl)benzamide] belongs 250 nM; to `O=C(c1ccc(-n2nnc3cccnc32)cc1F)N(c1nccc2cc(-c3cccs3)ccc12)[C@@H]1CCCNC1` [Example 368, (R)-4-(3H-[1,2,3]triazolo[4,5-b]pyridin-3-yl)-2-fluoro-N-(piperidin-3-yl)-N-(6-(thiophen-2-yl)isoquinolin-1-yl)benzamide], 500 nM; to `CNC(=O)c1ccc2c(N(C(=O)c3ccc(-n4nnc5cccnc54)cc3F)[C@@H]3CCCNC3)nccc2c1` [Example 369, (R)-1-(4-(3H-[1,2,3]triazolo[4,5-b]pyridin-3-yl)-2-fluoro-N-(piperidin-3-yl)benzamido)-N-methylisoquinoline-6-carboxamide], 230 nM.

Values taken from patent US20240400555A1 (Initial Therapeutics, Inc., priority 2023, published 2024).
